Measured values taken from ChEMBL document CHEMBL1212877, “Multipotent drugs with cholinergic and neuroprotective properties for the treatment of Alzheimer and neuronal vascular diseases. I. Synthesis, biological assessment, and molecular modeling of simple and readily available 2-aminopyridine-, and 2-chloropyridine-3,5-dicarbonitriles” (Bioorg Med Chem, 2010).
Values joined by “and” are separate entries in the source; they are usually repeats but may differ in a detail not shown here. Identical values can stand only once.

What was measured:
[1] = target: Butyrylcholinesterase (Equus caballus, UniProt Q9N1N9); experiment: Inhibition of equine serum BuChE after 10 mins by Ellman's method
[2] = system: SH-SY5Y; experiment: Neuroprotective activity in human SH-SY5Y cells assessed as protection against rotenone/oligomycin-A-induced cell death at 1 uM after 24 hrs by MTT assay relative to control; type: functional
[3] = target: T1, Acetylcholinesterase (Electrophorus electricus, UniProt O42275); experiment: Inhibition of Electrophorus electricus AChE after 10 mins by Ellman's method
[4] = system: SH-SY5Y; experiment: Neuroprotective activity in human SH-SY5Y cells assessed as protection against rotenone/oligomycin-A-induced cell death at 1 uM after 24 hrs by LDH release assay relative to control; type: functional
[5] = target: T1, Acetylcholinesterase; experiment: Binding affinity to Electrophorus electricus AChE peripheral anionic site
[6] = target: T1, Acetylcholinesterase; experiment: Non competitive inhibition of Electrophorus electricus AChE by Lineweaver-Burke plot analysis

Chain of Butyrylcholinesterase (Q9N1N9 whole entry): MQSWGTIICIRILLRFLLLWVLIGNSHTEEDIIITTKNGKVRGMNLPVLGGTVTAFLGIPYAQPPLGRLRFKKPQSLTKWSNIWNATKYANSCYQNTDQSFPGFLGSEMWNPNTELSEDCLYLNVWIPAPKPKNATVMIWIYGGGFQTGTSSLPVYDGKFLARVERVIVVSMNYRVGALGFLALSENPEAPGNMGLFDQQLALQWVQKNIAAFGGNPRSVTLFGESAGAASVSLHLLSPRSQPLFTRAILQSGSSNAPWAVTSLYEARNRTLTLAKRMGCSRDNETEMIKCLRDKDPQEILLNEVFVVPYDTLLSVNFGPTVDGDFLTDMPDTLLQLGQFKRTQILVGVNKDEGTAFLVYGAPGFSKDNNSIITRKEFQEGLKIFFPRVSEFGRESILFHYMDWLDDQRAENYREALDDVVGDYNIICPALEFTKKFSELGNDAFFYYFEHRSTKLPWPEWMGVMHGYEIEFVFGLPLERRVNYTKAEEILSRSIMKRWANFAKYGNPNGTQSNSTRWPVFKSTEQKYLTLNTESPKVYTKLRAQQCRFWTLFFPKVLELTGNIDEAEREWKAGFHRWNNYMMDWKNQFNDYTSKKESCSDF
T1 sequence (O42275 whole entry): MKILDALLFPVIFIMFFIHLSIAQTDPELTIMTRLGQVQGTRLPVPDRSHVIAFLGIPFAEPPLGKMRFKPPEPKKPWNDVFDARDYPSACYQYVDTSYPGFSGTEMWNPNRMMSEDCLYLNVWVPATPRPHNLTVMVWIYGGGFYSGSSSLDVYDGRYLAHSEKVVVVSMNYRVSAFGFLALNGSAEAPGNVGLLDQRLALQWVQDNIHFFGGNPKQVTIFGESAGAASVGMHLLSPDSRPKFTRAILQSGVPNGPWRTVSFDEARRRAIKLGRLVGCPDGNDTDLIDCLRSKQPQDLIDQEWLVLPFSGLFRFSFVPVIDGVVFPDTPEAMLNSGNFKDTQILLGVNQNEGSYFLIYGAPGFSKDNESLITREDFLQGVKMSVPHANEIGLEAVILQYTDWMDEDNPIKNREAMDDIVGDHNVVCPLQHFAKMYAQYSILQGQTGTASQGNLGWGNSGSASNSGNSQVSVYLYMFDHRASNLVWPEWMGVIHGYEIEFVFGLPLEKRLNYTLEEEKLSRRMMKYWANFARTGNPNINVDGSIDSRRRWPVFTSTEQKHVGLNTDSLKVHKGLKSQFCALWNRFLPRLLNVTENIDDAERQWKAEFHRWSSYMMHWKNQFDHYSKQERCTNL

Molecule `CN(C)c1nc(Cl)c(C#N)cc1C#N` has an IC50 [1] greater than 100 µM, an Activity [2] of 6% and an IC50 [3] of 5 µM.

For `N#Cc1cc(C#N)c(OCCCc2ccccc2)nc1N`, the IC50 [1] was greater than 100 µM, the Activity [2] was 0% and the IC50 [3] was greater than 100 µM.

In the case of `N#Cc1cc(C#N)c(N2C3CCC2CC3)nc1N`, the IC50 [1] is reported as greater than 100 µM, the Activity [2] is reported as 0% and the IC50 [3] is reported as greater than 100 µM.

With `CN(C)c1nc(Cl)c(C#N)c(-c2ccccc2)c1C#N` the IC50 [1] was greater than 100 µM, the Activity [2] was 0% and the IC50 [3] was 10 µM.

`N#Cc1cc(C#N)c(N2CCC(O)CC2)nc1N` gave an IC50 [1] greater than 100 µM, an Activity [4] of 15.1% and an Activity [2] of 3%. The IC50 [3] was greater than 100 µM.

For `N#Cc1cc(C#N)c(N2C3CCC2CC3)nc1Cl`, the IC50 [1] was 24 µM, the Activity [4] was 31.6% and the Activity [2] was 7.5%. It also gave an IC50 [3] of 75 µM.

Molecule `N#Cc1c(N)nc(Sc2ccccc2)c(C#N)c1-c1ccccc1` has an IC50 [1] greater than 100 µM, an Activity [4] of 3.84% and an Activity [2] of 11.2%. For the same molecule, the IC50 [3] was greater than 100 µM.

Work on `CN(C)c1nc(N)c(C#N)c(-c2ccccc2)c1C#N` yielded an IC50 [1] greater than 100 µM, an Activity [2] of 0% and an IC50 [3] greater than 100 µM.

With `CC[N+](C)(CC)CCC[n+]1c(-c2ccccc2)c2cc(N)ccc2c2ccc(N)cc21` [PROPIDIUM] the Ki [5] was 8.6 µM and 8.9 µM.

Work on `N#Cc1c(Cl)nc(N2CCCC2)c(C#N)c1-c1ccccc1` yielded an IC50 [1] greater than 100 µM, an Activity [4] of 37.7% and an Activity [2] of 7.5%. The IC50 [3] was 5.6 µM.

Molecule `N#Cc1c(N)nc(N2C3CCC2CC3)c(C#N)c1-c1ccccc1` has an IC50 [1] of 3.8 µM, an Activity [2] of 0.7% and an IC50 [3] greater than 100 µM.

Work on `N#Cc1cc(C#N)c(N2CCCC2)nc1N` yielded an IC50 [1] greater than 100 µM, an Activity [2] of 20.1% and an IC50 [3] of 3.5 µM.

`N#Cc1c(Cl)nc(N2C3CCC2CC3)c(C#N)c1-c1ccccc1` was tested, and the IC50 [1] was greater than 100 µM, the Activity [2] was 12.9% and the IC50 [3] was greater than 100 µM.

Molecule `N#Cc1c(Cl)nc(N2CCCCC2)c(C#N)c1-c1ccccc1` has an IC50 [1] greater than 100 µM, an Activity [2] of 0% and an IC50 [3] greater than 100 µM.

`N#Cc1c(N)nc(N2CCCCC2)c(C#N)c1-c1ccccc1` was tested, and the IC50 [1] was greater than 100 µM, the Activity [4] was 10.7% and the Activity [2] was 2.7%. The IC50 [3] was greater than 100 µM.

`N#Cc1cc(C#N)c(N2CCCCC2)nc1N` showed an IC50 [1] of 26 µM, an Activity [4] of 14.8% and an Activity [2] of 10.2%. For the same molecule, the IC50 [3] was greater than 100 µM.

Molecule `N#Cc1cc(C#N)c(NCCO)nc1N` has an IC50 [1] greater than 100 µM, an Activity [4] of 3% and an Activity [2] of 21.4%. It also gave an IC50 [3] greater than 100 µM.

Work on `N#Cc1cc(C#N)c(N2CCCC2)nc1Cl` yielded an IC50 [1] greater than 100 µM, an Activity [4] of 32% and an Activity [2] of 7.5%. It also gave an IC50 [3] of 0.8 µM.

`COc1nc(N)c(C#N)cc1C#N` was tested, and the IC50 [1] was greater than 100 µM, the Activity [2] was 11% and the IC50 [3] was greater than 100 µM.

`N#Cc1cc(C#N)c(N2CCC(Cc3ccccc3)CC2)nc1N` gave an IC50 [1] greater than 100 µM, an Activity [2] of 19.1% and an IC50 [3] greater than 100 µM.

`CCOc1nc(N)c(C#N)cc1C#N` gave an IC50 [1] greater than 100 µM, an Activity [4] of 10.9% and an Activity [2] of 32.9%. It also gave an IC50 [3] greater than 100 µM.

For `N#Cc1c(N)nc(S)c(C#N)c1-c1ccccc1`, the IC50 [1] was greater than 100 µM, the Activity [4] was 14.1% and the Activity [2] was 5.8%. It also gave an IC50 [3] greater than 100 µM.

`C#CCNc1nc(N)c(C#N)cc1C#N` gave an IC50 [1] greater than 100 µM, an Activity [2] of 17.7% and an IC50 [3] greater than 100 µM.

For `N#Cc1c(N)nc(NCc2ccccc2)c(C#N)c1-c1ccccc1`, the IC50 [1] was greater than 100 µM, the Activity [2] was 10.6% and the IC50 [3] was greater than 100 µM.

`N#Cc1cc(C#N)c(N2CCCCC2)nc1Cl` gave an IC50 [1] greater than 100 µM, a Ki [6] of 17.2 µM and an Activity [2] of 14.7%. It also gave an IC50 [3] of 9.5 µM.

For `CN(C)c1nc(N)c(C#N)cc1C#N`, the IC50 [1] was greater than 100 µM, the Activity [4] was 36.2% and the Activity [2] was 12.9%. The IC50 [3] was 22.7 µM.
